Experiments:
Type in all cases: cell-based, Blumea balsamifera
[1] = tested on: B. balsamifera somatic cells; assay: Effects of different colchicine concentrations on induction of adventitious tetraploid buds from root segments; conditions: for Induction rate %: MS Medium with 1.0 mg/L 6-BA, 0.05 mg/L NAA, root segment about 4.0 cm, 60 days
Source text: (§1) In the examples, effective root segment refers to uncontaminated root segment; induction rate refers to the percentage of the total number of adventitious tetraploid buds formed by induction accounting for the total number of diploid explants, and the calculation formula is: induction rate (%)=(total number of adventitious tetraploid buds/total number of diploid explants)×100%. Chimera rate (%)=(total number of adventitious buds of chimera/total number of adventitious buds)×100%.
MS Medium was used as a basal medium, which was supplemented with 1.0 mg/L 6-BA, 0.05 mg/L NAA, 30 g/L sucrose, 6 g/L agar, and colchicine of different concentrations (50, 70, 90, 120, and 150 mg/L, respectively). Culture media were prepared individually, and segmented root tissues (with a root segment length of about 4.0 cm) were inoculated. Chromosome ploidy identification was conducted on the formed adventitious buds after 60 days. The number of adventitious tetraploid buds was counted, and the doubling induction rate was calculated.

[2] = tested on: root explants of diploid B. balsamifera; assay: Effects of different NAA concentrations on induction of adventitious tetraploid buds from root segments; conditions: for Induction rate %: MS Medium with 1.0 mg/L 6-BA, 120 mg/L colchicine, root segment about 4.0 cm, 60 days
Source text: as §1
MS Medium was used as a basal medium, which was supplemented with 1.0 mg/L 6-BA, 120 mg/L colchicine, 30 g/L sucrose, 6 g/L agar, and NAA of different concentrations (0, 0.025, 0.05, 0.075, and 0.1 mg/L, respectively, 0 mg/L as the control group). Culture media were prepared individually, and segmented root tissues (with a root segment length of about 4.0 cm) were inoculated. Chromosome ploidy identification was conducted on adventitious buds after 60 days. The number of adventitious tetraploid buds was counted, and the induction rate was calculated.

[3] = tested on: B. balsamifera somatic cells; assay: Effects of different 6-BA concentrations on induction of adventitious tetraploid buds from root segments; conditions: for Induction rate %: MS Medium with 0.05 mg/L NAA, 120 mg/L colchicine, root segment about 6.0 cm, 60 days
Source text: as §1
MS Medium was used as a basal medium, which was supplemented with 0.05 mg/L NAA, 120 mg/L colchicine, 30 g/L sucrose, 6 g/L agar, and 6-BA of different concentrations (0, 1.0, 1.5, and 2.0 mg/L, respectively, 0 mg/L as the control group). Culture media were prepared individually, segmented root tissues (with a root segment length of about 6.0 cm) were inoculated, and contaminated root explants were excluded after 60 days. The number of tetraploid buds was counted, and the doubling efficiency was calculated.

SMILES: COc1cc2c(c(OC)c1OC)-c1ccc(OC)c(=O)cc1[C@@H](NC(C)=O)CC2 [Colchicine, colchicine]
- Induction rate % ([1]; colchicine 50 mg/L): 0%
- Induction rate % ([1]; colchicine 70 mg/L): 0%
- Induction rate % ([1]; colchicine 90 mg/L): 2.08%
- effect of inducing root explants of diploid B. balsamifera to form adventitious tetraploid buds ([1]; colchicine 120 mg/L, compared with 50, 70, 90 and 150 mg/L): optimal
- Induction rate % ([1]; colchicine 120 mg/L): 10.42%
- Induction rate % ([1]; colchicine 150 mg/L): 4.17%

SMILES: O=C(O)Cc1cccc2ccccc12 [NAA, 1-naphthaleneacetic acid]
- Induction rate % ([2]; NAA 0.025 mg/L): 2.08%
- doubling effect ([2]; NAA 0.05 mg/L, compared with 0, 0.025, 0.075 and 0.1 mg/L): optimal
- Induction rate % ([2]; NAA 0.05 mg/L): 10.42%
- Induction rate % ([2]; NAA 0.075 mg/L): 4.17%
- Induction rate % ([2]; NAA 0.1 mg/L): 3.13%

SMILES: c1ccc(CNc2ncnc3nc[nH]c23)cc1 [6-BA, 6-benzylaminopurine]
- effect of inducing the doubling of the somatic cells of the root explants and dedifferentiating into adventitious tetraploid buds ([3]; 6-BA 1.0 mg/L, compared with 0, 1.5 and 2.0 mg/L): optimal
- Induction rate % ([3]; 6-BA 1.0 mg/L): 7.75%
- Induction rate % ([3]; 6-BA 1.5 mg/L): 5.5%
- Induction rate % ([3]; 6-BA 2.0 mg/L): 4.17%
